Assay results: patent US20260285850A1, “SUBSTITUTED OXAZOLIDINONES AND IMIDAZOLINONES AS HERBICIDES” (FMC CORPORATION, priority 2023, published 2026)

Tests used:
Assay type in all cases: in vivo
[1] = system: barnyardgrass (Echinochloa crus-galli); assay: Test A preemergence soil spray, visual injury rating 0-100; conditions: 10 days, 0 = no effect, 100 = complete control
Outline: (§1)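 Plants were grown in a loam soil-sand blend and treated with test chemical in a non-phytotoxic solvent mixture containing surfactant, either sprayed on soil preemergence or applied postemergence to 2-10 cm plants. After 10 days in a greenhouse, injury was scored visually against untreated controls, 0 meaning no effect and 100 complete control.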

[2] = system: blackgrass (Alopecurus myosuroides); assay: as above; conditions: 10 days, 0 = no effect, 100 = complete control
Outline: as §1

corn (Zea mays) [3] = assay: as above; conditions: 10 days, 0 = no effect, 100 = complete control
Outline: as §1

[4] = system: green foxtail (Setaria viridis); assay: as above; conditions: 10 days, 0 = no effect, 100 = complete control
Outline: as §1

kochia (Bassia scoparia) [5] = assay: as above; conditions: 10 days, 0 = no effect, 100 = complete control
Outline: as §1

[6] = system: oat, wild (wild oat, Avena fatua); assay: as above; conditions: 10 days, 0 = no effect, 100 = complete control
Outline: as §1

[7] = system: palmer (palmer amaranth, palmer pigweed, Amaranthus palmeri); assay: as above; conditions: 10 days, 0 = no effect, 100 = complete control
Outline: as §1

[8] = system: ragweed (common ragweed, Ambrosia artemisiifolia); assay: as above; conditions: 10 days, 0 = no effect, 100 = complete control
Outline: as §1

[9] = system: ryegrass, Italian (italian ryegrass, Lolium multiflorum); assay: as above; conditions: 10 days, 0 = no effect, 100 = complete control
Outline: as §1

soybean (Glycine max) [10] = assay: as above; conditions: 10 days, 0 = no effect, 100 = complete control
Outline: as §1

[11] = system: wheat (Triticum aestivum); assay: as above; conditions: 10 days, 0 = no effect, 100 = complete control
Outline: as §1

[12] = system: barnyardgrass (Echinochloa crus-galli); assay: Test A postemergence application, visual injury rating 0-100; conditions: Postemergence, 10 days, 0 is no effect, 100 is complete control
Outline: as §1

[13] = system: blackgrass (Alopecurus myosuroides); assay: as above; conditions: Postemergence, 10 days, 0 is no effect, 100 is complete control
Outline: as §1

corn (Zea mays) [14] = assay: as above; conditions: Postemergence, 10 days, 0 is no effect, 100 is complete control
Outline: as §1

[15] = system: galium (catchweed bedstraw, Galium aparine); assay: as above; conditions: Postemergence, 10 days, 0 is no effect, 100 is complete control
Outline: as §1

[16] = system: green foxtail (Setaria viridis); assay: as above; conditions: Postemergence, 10 days, 0 is no effect, 100 is complete control
Outline: as §1

[17] = system: horseweed (Erigeron canadensis); assay: as above; conditions: Postemergence, 10 days, 0 is no effect, 100 is complete control
Outline: as §1

kochia (Bassia scoparia) [18] = assay: as above; conditions: Postemergence, 10 days, 0 is no effect, 100 is complete control
Outline: as §1

[19] = system: oat, wild (wild oat, Avena fatua); assay: as above; conditions: Postemergence, 10 days, 0 is no effect, 100 is complete control
Outline: as §1

[20] = system: palmer (palmer amaranth, palmer pigweed, Amaranthus palmeri); assay: as above; conditions: Postemergence, 10 days, 0 is no effect, 100 is complete control
Outline: as §1

[21] = system: ragweed (common ragweed, Ambrosia artemisiifolia); assay: as above; conditions: Postemergence, 10 days, 0 is no effect, 100 is complete control
Outline: as §1

[22] = system: ryegrass, Italian (italian ryegrass, Lolium multiflorum); assay: as above; conditions: Postemergence, 10 days, 0 is no effect, 100 is complete control
Outline: as §1

soybean (Glycine max) [23] = assay: as above; conditions: Postemergence, 10 days, 0 is no effect, 100 is complete control
Outline: as §1

[24] = system: wheat (Triticum aestivum); assay: as above; conditions: Postemergence, 10 days, 0 is no effect, 100 is complete control
Outline: as §1

[25] = system: barnyardgrass (Echinochloa crusgalli); assay: Test B flooded paddy test, visual plant response rating 0-100; conditions: 250 g ai/ha, Flood, applied to paddy water, evaluated after 13 days
Outline: (§2)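 Plants were grown to the 2-leaf stage, then pots were flooded to 3 cm above the soil and test compounds were applied directly into the paddy water. Water depth was held there throughout; after 13 days in a greenhouse, injury was scored visually against untreated controls.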

[26] = system: ducksalad (Heteranthera limosa); assay: as above; conditions: 250 g ai/ha, Flood, applied to paddy water, evaluated after 13 days
Outline: as §2

rice (Oryza sativa) = assay: as above; conditions: 250 g ai/ha, Flood, applied to paddy water, evaluated after 13 days
Outline: as §2

[27] = system: sedge, umbrella (small-flower umbrella sedge, Cyperus difformis); assay: as above; conditions: 250 g ai/ha, Flood, applied to paddy water, evaluated after 13 days
Outline: as §2

`CC1(C(=O)NC2C=CC(C(=O)OCCS(C)(=O)=O)C2)CN(c2cc(Cl)cc(Cl)c2)C(=O)O1` (stereo not shown) [Compound 46] was tested, and the “Barnyardgrass plant response rating (0 to 100 scale)” value (“Barnyardgrass plant response rating” below) ([1]; 125 g ai/ha) was 80, the “Barnyardgrass plant response rating” value ([1]; 500 g ai/ha) was 100 and the “Blackgrass plant response rating (0 to 100 scale)” value (shortened to “Blackgrass plant response rating”) ([2]; 125 g ai/ha) was 80. For the same compound, the “Blackgrass plant response rating” value ([2]; 500 g ai/ha) was 90, the “Corn plant response rating (0 to 100 scale)” value (from here on “Corn plant response rating”) (corn (Zea mays) [3]; 125 g ai/ha) was 0 and the “Corn plant response rating” value (corn (Zea mays) [3]; 500 g ai/ha) was 90. For the same compound, the “Foxtail, Green plant response rating (0 to 100 scale)” value (shortened to “Foxtail, Green plant response rating”) ([4]; 125 g ai/ha) was 0, the “Foxtail, Green plant response rating” value ([4]; 500 g ai/ha) was 0 and the “Kochia plant response rating (0 to 100 scale)” value (from here on “Kochia plant response rating”) (kochia (Bassia scoparia) [5]; 125 g ai/ha) was 60. The “Kochia plant response rating” value (kochia (Bassia scoparia) [5]; 500 g ai/ha) was 90, the “Oat, Wild plant response rating (0 to 100 scale)” value (“Oat, Wild plant response rating” for short) ([6]; 125 g ai/ha) was 70 and the “Oat, Wild plant response rating” value ([6]; 500 g ai/ha) was 90. For the same compound, the “Amaranth, Palmer plant response rating (0 to 100 scale)” value ([7]; 125 g ai/ha) was 80, the “Amaranth, Palmer plant response rating (0 to 100 scale)” value ([7]; 500 g ai/ha) was 100 and the “Ragweed plant response rating (0 to 100 scale)” value (“Ragweed plant response rating” below) ([8]; 125 g ai/ha) was 30. The “Ragweed plant response rating” value ([8]; 500 g ai/ha) was 70, the “Ryegrass, Italian plant response rating (0 to 100 scale)” value (“Ryegrass, Italian plant response rating” for short) ([9]; 125 g ai/ha) was 80 and the “Ryegrass, Italian plant response rating” value ([9]; 500 g ai/ha) was 90. The “Soybean plant response rating (0 to 100 scale)” value (“Soybean plant response rating” below) (soybean (Glycine max) [10]; 125 g ai/ha) was 10, the “Soybean plant response rating” value (soybean (Glycine max) [10]; 500 g ai/ha) was 60 and the “Wheat plant response rating (0 to 100 scale)” value (“Wheat plant response rating” for short) ([11]; 125 g ai/ha) was 70. The “Wheat plant response rating” value ([11]; 500 g ai/ha) was 90, the “Barnyardgrass plant response rating” value ([12]; 125 g ai/ha) was 100 and the “Barnyardgrass plant response rating” value ([12]; 500 g ai/ha) was 100. For the same compound, the “Blackgrass plant response rating” value ([13]; 125 g ai/ha) was 100, the “Blackgrass plant response rating” value ([13]; 500 g ai/ha) was 100 and the “Corn plant response rating” value (corn (Zea mays) [14]; 125 g ai/ha) was 100. For the same compound, the “Corn plant response rating” value (corn (Zea mays) [14]; 500 g ai/ha) was 100, the “Galium plant response rating (0 to 100 scale)” value ([15]; 125 g ai/ha) was 80 and the “Galium plant response rating (0 to 100 scale)” value ([15]; 500 g ai/ha) was 70. The “Foxtail, Green plant response rating” value ([16]; 125 g ai/ha) was 80, the “Foxtail, Green plant response rating” value ([16]; 500 g ai/ha) was 90 and the “Horseweed plant response rating (0 to 100 scale)” value ([17]; 125 g ai/ha) was 80. For the same compound, the “Horseweed plant response rating (0 to 100 scale)” value ([17]; 500 g ai/ha) was 80, the “Kochia plant response rating” value (kochia (Bassia scoparia) [18]; 125 g ai/ha) was 80 and the “Kochia plant response rating” value (kochia (Bassia scoparia) [18]; 500 g ai/ha) was 80. The “Oat, Wild plant response rating” value ([19]; 125 g ai/ha) was 80, the “Oat, Wild plant response rating” value ([19]; 500 g ai/ha) was 90 and the “Amaranth, Palmer / Pigweed, Palmer plant response rating (0 to 100 scale)” value ([20]; 125 g ai/ha) was 90. The “Amaranth, Palmer / Pigweed, Palmer plant response rating (0 to 100 scale)” value ([20]; 500 g ai/ha) was 90, the “Ragweed plant response rating” value ([21]; 125 g ai/ha) was 60 and the “Ragweed plant response rating” value ([21]; 500 g ai/ha) was 80. For the same compound, the “Ryegrass, Italian plant response rating” value ([22]; 125 g ai/ha) was 70, the “Ryegrass, Italian plant response rating” value ([22]; 500 g ai/ha) was 70 and the “Soybean plant response rating” value (soybean (Glycine max) [23]; 125 g ai/ha) was 80. For the same compound, the “Soybean plant response rating” value (soybean (Glycine max) [23]; 500 g ai/ha) was 90, the “Wheat plant response rating” value ([24]; 125 g ai/ha) was 90 and the “Wheat plant response rating” value ([24]; 500 g ai/ha) was 90. For the same compound, the “Plant response rating, Barnyardgrass (0 to 100 scale, 0 is no effect and 100 is complete control)” value [25] was 70, the “Plant response rating, Ducksalad (0 to 100 scale, 0 is no effect and 100 is complete control)” value [26] was 90 and the “Plant response rating, Rice (0 to 100 scale, 0 is no effect and 100 is complete control)” value (rice (Oryza sativa)) was 10. The “Plant response rating, Sedge, Umbrella (0 to 100 scale, 0 is no effect and 100 is complete control)” value [27] was 95.
